Reference: patent US20210147900A1, “METHODS AND COMPOSITIONS FOR DETECTING BETA-HYDROXYBUTYRATE IN BIOLOGICAL FLUIDS” (F.A.T. Stats LLC, priority 2019, published 2021)

Experiment: Solubility / appearance of coenzyme Q with β-cyclodextrin in water or Tris/NaOH buffer
Assay type: physicochemical
Settings: for Appearance: in water, 5 hours at 75° C. and 5 hours at 85° C.
Experimental: First, 0.107 grams of β-cyclodextrin was dissolved in 4.8 grams of the Tris/NaOH buffer solution (pH 8.7). This mixture this heated at 45° C. for 5 minutes and then 0.082 g of coenzyme Q0 was added. Heating was continued until coenzyme Q0 was no longer visible as a solid. The coenzyme Q0/β-cyclodextrin solution was used within 2 hours of making it. Alternatively, 0.0074 grams of coenzyme Q0 and 0.0481 grams of β-cyclodextrin was mixed with 1.2070 grams water. This mixture was heated at 50° C. for 20 minutes with stirring. […] This procedure results in a fully solubilized form of coenzyme Q0 which is optically transparent and has no visible particles of coenzyme Q0 in the mixture. It is important that the coenzyme Q0 mixture is fully soluble so that it may be mixed with other water-soluble ingredients and applied to a paper test strip for further reactions with biological solutes. If the coenzyme Q0/β-cyclodextrin mixture is not water soluble, it cannot provide a uniform distribution of reactions for the test for BHB in a biological fluid as disclosed herein.
The procedure for solubilizing coenzyme Q10 in U.S. Patent Application Publication No. US 2007/0202090 A1 was followed and results are listed below in Table 17. Coenzyme Q10 and β-cyclodextrin were combined with water in the following molar ratios of coenzyme Q10 to β-cyclodextrin: 1:1; 1:5; and 1:10. Each solution was heated for 5 hours at 75° C. and then an additional 5 hours at 85° C.

Structure (SMILES) | Appearance of mixture with β-cyclodextrin in water (0.0074 g coenzyme Q0, 0.0481 g β-cyclodextrin, 1.2070 g water, 50° C. for 20 minutes with stirring) | Appearance (molar ratio coenzyme Q10 to β-cyclodextrin 1:1) | Appearance (molar ratio coenzyme Q10 to β-cyclodextrin 1:5) | Appearance (molar ratio coenzyme Q10 to β-cyclodextrin 1:10) | Incorporation in basic buffer solution with β-cyclodextrin (same procedure as Example 2 (Tris/NaOH buffer pH 8.7, heating))
COC1=C(OC)C(=O)C(C)=CC1=O [coenzyme Q0, 2,3-dimethoxy-5-methyl-p-benzoquinone] | transparent solution with no visible particles |  |  |  | 
COC1=C(OC)C(=O)C(C/C=C(\C)CC/C=C(\C)CC/C=C(\C)CC/C=C(\C)CC/C=C(\C)CC/C=C(\C)CC/C=C(\C)CC/C=C(\C)CC/C=C(\C)CCC=C(C)C)=C(C)C1=O [coenzyme Q10] |  | not transparent; | not transparent; | not transparent; | could not be adequately incorporated
